pIC50: −log10 of the molar value.
Columns and labels:
Cathepsin K = target: T1, Cathepsin K (Homo sapiens, UniProt P43235); test: Inhibition of cathepsin K
T1 sequence (P43235 whole entry): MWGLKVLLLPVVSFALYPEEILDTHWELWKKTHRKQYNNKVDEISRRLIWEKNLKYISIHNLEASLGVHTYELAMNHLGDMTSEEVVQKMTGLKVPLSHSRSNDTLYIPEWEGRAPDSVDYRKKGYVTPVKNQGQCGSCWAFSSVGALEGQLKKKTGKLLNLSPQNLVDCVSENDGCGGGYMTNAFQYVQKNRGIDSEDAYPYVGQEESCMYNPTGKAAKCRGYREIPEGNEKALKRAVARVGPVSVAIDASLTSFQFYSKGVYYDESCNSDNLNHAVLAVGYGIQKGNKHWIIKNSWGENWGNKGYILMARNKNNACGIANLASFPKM

[1] = Electrophilicity, glutathione reactivity assessed as half life; assay type: physicochemical; parameters: unit not given here
Procathepsin L = Procathepsin L (Homo sapiens, UniProt P07711); test: Inhibition of cathepsin L
Cathepsin S = Cathepsin S (Homo sapiens, UniProt P25774); test: Inhibition of cathepsin S
Cathepsin B = Cathepsin B (Homo sapiens, UniProt P07858); test: Inhibition of cathepsin B

Sequence of Procathepsin L (P07711 whole entry): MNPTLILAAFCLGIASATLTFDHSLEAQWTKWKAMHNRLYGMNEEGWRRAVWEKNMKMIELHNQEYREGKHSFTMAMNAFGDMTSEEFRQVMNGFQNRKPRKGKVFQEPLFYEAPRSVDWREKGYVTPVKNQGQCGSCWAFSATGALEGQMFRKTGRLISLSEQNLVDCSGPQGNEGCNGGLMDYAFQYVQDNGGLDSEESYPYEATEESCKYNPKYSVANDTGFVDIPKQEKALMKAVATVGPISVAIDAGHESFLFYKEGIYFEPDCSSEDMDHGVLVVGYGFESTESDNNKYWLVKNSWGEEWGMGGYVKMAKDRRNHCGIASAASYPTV
Sequence of Cathepsin S (P25774 whole entry): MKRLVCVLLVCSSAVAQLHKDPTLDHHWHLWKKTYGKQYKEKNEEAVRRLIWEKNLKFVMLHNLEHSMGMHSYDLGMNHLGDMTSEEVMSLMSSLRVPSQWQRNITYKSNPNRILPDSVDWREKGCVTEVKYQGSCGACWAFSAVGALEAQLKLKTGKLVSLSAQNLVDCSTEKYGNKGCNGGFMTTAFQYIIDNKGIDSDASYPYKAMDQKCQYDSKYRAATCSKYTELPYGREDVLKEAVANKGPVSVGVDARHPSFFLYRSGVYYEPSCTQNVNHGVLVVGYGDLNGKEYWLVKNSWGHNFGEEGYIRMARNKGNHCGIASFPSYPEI

| pIC50 (Cathepsin K) | logt1/2 [1] | SMILES | other results |
| --- | --- | --- | --- |
| – | 2.56 | CN(C)c1cc(N(C)C)nc(C#N)n1 | – |
| – | 2.07 | CN(C)c1nc(C#N)nc(Nc2ccccc2)n1 | – |
| 6.52 | – | CCC(C)Nc1nc(C#N)nc(N2CCOCC2)c1N (configuration not stated) | – |
| 8.70 | – | N#Cc1nc(NC2CC3CCC2C3)c(N)c(N2CCOCC2)n1 (configuration not stated) | – |
| 7.66 | – | N#Cc1nc(N2CCCCC2)c(N)c(N2CCOCC2)n1 | – |
| 7.89 | – | N#Cc1nc(NC2CCCC2)c(N)c(N2CCOCC2)n1 | – |
| – | 2.19 | CNc1nc(C#N)nc(N(C)C)c1Br | – |
| 8.22 | – | CC(C)CNc1nc(C#N)nc(N2CCNCC2)c1N | pIC50 (Procathepsin L): 5.85; pIC50 (Cathepsin B): 5.21; pIC50 (Cathepsin S): 6.05 |
| 7.62 | – | COCCNc1nc(C#N)nc(NCC(C)C)c1N | – |
| – | 3.26 | CN(C)c1nc(C#N)nc(N(C)C)c1N | – |

Continued, molecule first:

| SMILES | pIC50 (Cathepsin K) | logt1/2 [1] | other results |
| --- | --- | --- | --- |
| N#Cc1nc(NC2CCOC2)c(N)c(N2CCOCC2)n1 (configuration not stated) | 6.47 | – | – |
| CC(C)CNc1nc(C#N)nc(N2CCOCC2)c1N | 7.74 | – | pIC50 (Procathepsin L): 5.70; pIC50 (Cathepsin S): 6.25 |
| CNc1nc(C#N)nc(N(C)C)c1N | – | 3.38 | – |
| N#Cc1nc(N2CCCC2)c(N)c(N2CCOCC2)n1 | 7.22 | – | – |
| N#Cc1nc(Nc2ccccc2)c(N)c(N2CCOCC2)n1 | 6.96 | – | – |
| CC(C)Nc1nc(C#N)nc(N2CCOCC2)c1N | 6.25 | – | – |
| N#Cc1nc(NC2CCCCC2)c(N)c(N2CCOCC2)n1 | 7.64 | – | – |
| CC(C)(C)CNc1nc(C#N)nc(N2CCOCC2)c1N | 7.77 | – | pIC50 (Procathepsin L): < 5.00; pIC50 (Cathepsin B): < 5.00; pIC50 (Cathepsin S): 6.04 |
| CN(C)c1nc(C#N)nc(Oc2ccccc2)c1N | – | 2.98 | – |
| CN(C)c1cc(Nc2ccccc2)nc(C#N)n1 | – | 2.12 | – |
| COc1c(Nc2ccccc2)nc(C#N)nc1N(C)C | – | 2.31 | – |
| CC(C)CNc1nc(C#N)nc(NC2CCS(=O)(=O)C2)c1N (configuration not stated) | 7.85 | – | – |
| CC(C)CNc1nc(C#N)nc(N2CC(O)C2)c1N | 7.49 | – | – |
| CC(C)CNc1nc(C#N)nc(NCc2nnn[nH]2)c1N | 7.21 | – | – |
| CNc1cc(N(C)C)nc(C#N)n1 | – | 2.67 | – |
| CN(C)c1nc(C#N)nc(Nc2ccccc2)c1N | – | 3 | – |
| CNc1c(Nc2ccccc2)nc(C#N)nc1N(C)C | – | 2.91 | – |
| CNc1nc(C#N)nc(N(C)C)c1[N+](=O)[O-] | – | < 2.08 | – |
| CC(=O)N1CCN(c2nc(C#N)nc(NCC(C)C)c2N)CC1 | 8.05 | – | – |
